According to patent US7642277B2, “Non-nucleoside reverse transcriptase inhibitors” (Boehringer Ingelheim International GmbH, priority 2002, dated 2010):

What was measured:
[1] = target: T1, HIV-1 RT enzyme (wild type) (Human immunodeficiency virus type 1 group M subtype B, UniProt P04585); test: Reverse transcriptase (RT) enzymatic assay (IC50), PicoGreen fluorescence, wild type; assay type: biochemical; details: RT enzymatic assay, wild type; read-out: IC50 WT
T1 construct: The reverse transcriptase (RT) enzyme assay has been adapted to a 96-well microtiter plate format
Description: (§1) Reverse Transcriptase (RT) Assays Enzymatic Assay (IC50)
The enzymatic assay employed is described as follows: The reverse transcriptase (RT) enzyme assay has been adapted to a 96-well microtiter plate format and uses PicoGreen™ as a fluorescent intercalator. More explicitly, the HIV-1 RT enzyme was thawed and appropriately diluted into Tris/HCl 50 mM pH 7.8 containing NaCl 60 mM, MgCl2∘6H2O 2 mM, DTT 6 mM, GSH 2 mM and 0.02% w/v Chaps to give ≈10 nM enzyme. […] The plate was pre-incubated for 15 minutes at room temperature before proceeding to the next step. […] Then the enzymatic reaction was initiated by addition of 20 μL of substrate solution. […] After addition of the substrate cocktail, the plate was covered with a plastic seal and incubated for 50 minutes at 37° C. in a dry incubator. The reaction was then quenched by addition of 5 μL of EDTA 0.5 M. The plate was shaken for 30 seconds at medium speed and incubated for 5 minutes at room temperature. Then 160 μL of PicoGreen™ 1:400 dilution from commercial stock (diluted in Tris 20 mM pH 7.5 with EDTA 1 mM) was added and the plate was shaken for 30 seconds and incubated for 10 minutes at room temperature. […] Each row contained at its extremities a blank and a control well.
(§2) Table legend: A=>100; B=100-50; C=<50; NT=not tested

[2] = target: T2, HIV-1 RT resistant mutant K103N/Y181C (Human immunodeficiency virus type 1 group M subtype B, UniProt P04585, K690N/Y768C); test: Reverse transcriptase (RT) enzymatic assay (IC50), PicoGreen fluorescence, resistant mutant; assay type: biochemical
T2 construct: The reverse transcriptase (RT) enzyme assay has been adapted to a 96-well microtiter plate format
Description: as §1
The enzymatic assay employed is described as follows: The reverse transcriptase (RT) enzyme assay has been adapted to a 96-well microtiter plate format and uses PicoGreen™ as a fluorescent intercalator. More explicitly, the HIV-1 RT enzyme was thawed and appropriately diluted into Tris/HCl 50 mM pH 7.8 containing NaCl 60 mM, MgCl2∘6H2O 2 mM, DTT 6 mM, GSH 2 mM and 0.02% w/v Chaps to give ≈10 nM enzyme. To 10 μL of this enzyme solution was added 10 μL of inhibitor solution (40 μM to […] inhibitor in the same assay buffer as above containing 4% v/v DMSO). The plate was pre-incubated for 15 minutes at room temperature before proceeding to the next step. In this pre-incubation step, the highest and lowest inhibitor concentrations were 20 μM and 1.016 nM respectively and the concentration of DMSO was 2% v/v. Then the enzymatic reaction was initiated by addition of 20 μL of substrate solution. The final reaction mixture contained Tris/HCl 50 mM pH 7.8, NaCl 60 mM, MgCl2∘6H2O 2 mM, DTT 6 mM, GSH 2 mM, CHAPS 0.02% w/v, DMSO 1% v/v, poly rC 45 nM, dG15 4.5 nM, dGTP 3.6 μM, and ≈2.5 nM enzyme. In this incubation step, the highest and lowest inhibitor concentrations were 10 μM and 0.508 nM respectively. After addition of the substrate cocktail, the plate was covered with a plastic seal and incubated for 50 minutes at 37° C. in a dry incubator. The reaction was then quenched by addition of 5 μL of EDTA 0.5 M. The plate was shaken for 30 seconds at medium speed and incubated for 5 minutes at room temperature. Then 160 μL of PicoGreen™ 1:400 dilution from commercial stock (diluted in Tris 20 mM pH 7.5 with EDTA 1 mM) was added and the plate was shaken for 30 seconds and incubated for 10 minutes at room temperature. The plate was then analyzed using a POLARstar Galaxy fluorimeter (BMG Labtechnologies) with λex and λem of 485 nm and 520 nm respectively. […] Each row contained at its extremities a blank and a control well.
as §2

[3] = tested on: HIV-1 (wild type) in C8166 LTRluc cells; test: C8166 HIV-1 luciferase assay (EC50), wild type; assay type: cell-based; details: Human immunodeficiency virus 1, C8166 HIV-1 luciferase assay (no *)
Excerpt: (§3) C8166 HIV-1 Luciferase Assay (EC50)
(§4) Plasmid: pGL3 Basic LTR/TAR #12
Plasmid is the pGL3 Basic Vector (a promoterless luciferase expression vector from Promega catalogue #E1751) with the addition of HIV-1 H×B2 LTR sequence from nucleotide −138 to +80 (Sca1-HindIII) upstream of the luciferase gene and the gene for blasticidine resistance cloned in.
(§5) C8166 cells are a human T-lymphotrophic virus type 1 immortalized but nonexpressing line of cord blood lymphocytes and are highly permissive to HIV-1 infection. The reporter cells were made by electroporating C8166 cells with pGL3 Basic LTR/TAR and then selecting positive clones with blasticidine. The clone C8166-LTRluc #A8-F5-G7 was selected by 3 consecutive rounds of limiting dilution under blasticidine selection.
(§6) Media: Complete media consisting of: RPMI 1640+10% FBS+10^−5 M
(§7) β-mercaptoethanol+10 μg/ml gentamycin. Cultures are maintained in complete media with 5 μg/ml blasticidine, however, selection is removed for the assay.
(§8) Luciferase Assay Protocol
(§9) Serial dilutions of HIV-1 inhibitors compounds are prepared in complete media from 10 mM DMSO stock solutions. Eleven serial dilutions of 2.5× are made at 8× desired final concentration in a 1 ml deep well titer plate (96 wells). The 12th well contains complete media with no inhibitor and serves as the positive control. All samples contain the same concentration of DMSO (≦0.1% DMSO). A 25 μl aliquot of inhibitor is added, to triplicate wells, of a 96 well tissue culture treated clear view black microtiter plate (Corning Costar catalogue # 3904). The last row is reserved for uninfected C8166 LTRluc cells to serve as the background blank control and the first row is media alone.
(§10) Count C8166 LTRluc cells and place in a minimal volume of complete RPMI 1640 in a tissue culture flask (ex. 30×10^6 cells in 10 ml media/25 cm^2 flask). Infect cells with HIV-1 at a moi of 0.005. Incubate cells for 1.5 hours at 37° C. on a rotating rack in a 5% CO2 incubator. Resuspend cells in complete RPMI to give a final concentration of 25,000-cells/175 μl. Add 175 μl of cell mix to wells of 96 well microtiter plate containing 25 μl 8× inhibitors. Add 25,000 uninfected C8166-LTRluc cells/well in 200 μl complete RPMI to last row for background control. Incubate cells at 37° C. in 5% CO2 incubator for 3 days.
(§11) Add 50 μl Steady Glo (luciferase substrate T1/2=5 hours Promega catalogue # E2520) to each well of the 96 well plate. Determine the relative light units (RLU) of luciferase using the BMG LUMlstar Galaxy luminometer. Plates are read from the bottom for 2 seconds per well with a gain of 240.
(§12) The level of inhibition (% inhibition) of each well containing inhibitor was calculated with the following equation: […]
The calculated % inhibition values were then used to determine EC50, slope factor (n) and maximum inhibition (Imax) by the non-linear regression routine NLIN procedure of SAS using the following equation: […]
The results are listed in Table 9 as IC50(nM) and EC50 (nM).
as §2

[4] = tested on: HIV-1 resistant mutant K103N/Y181C in C8166 LTRluc cells; test: C8166 HIV-1 luciferase assay (EC50), resistant mutant; assay type: cell-based; details: Human immunodeficiency virus 1, C8166, read-out: EC50 K103N/Y181C
Excerpt: as §3, §4, §5, §6, §7, §8
as §9, with “Eleven” for “Serial dilutions of HIV-1 inhibitors compounds are prepared in complete media from 10 mM DMSO stock solutions. Eleven”
as §10, with “Infect cells with HIV-1 at a moi of 0.005.” left out
as §11, §12
The calculated % inhibition values were then used to determine EC50, slope factor (n) and maximum inhibition (Imax) by the non-linear regression routine NLIN procedure of SAS using the following equation:
as §2

Compound | IC50 [1] | IC50 [2] | EC50 [3] | EC50 [4]
O=C(CSc1nnnn1-c1cccc(Cl)c1)Nc1ccccc1[N+](=O)[O-] [Entry 119] | > 100 nM | > 100 nM |  | 
OC(COc1ccccc1Cl)CSc1nnnn1-c1cccc2ccccc12 (stereo not shown) [Entry 325] | > 100 nM | > 100 nM |  | 
CCc1ccccc1-n1nnnc1SCC(=O)Nc1ccccc1[N+](=O)[O-] [Entry 110] | > 100 nM | > 100 nM |  | 
CCN(CC)c1ccc(-n2nnnc2SCC(=O)Nc2ccccc2[N+](=O)[O-])cc1 [Entry 143] |  | > 100 nM | < 50 nM | > 100 nM
Cc1ccc(C)c(NC(=O)CSc2nnnn2-c2cccc3ccccc23)c1 [Entry 240] | > 100 nM | > 100 nM |  | 
O=C(CSc1ccccc1-c1cccc2ccccc12)Nc1ccccc1Cl [Entry 406, 2-{{2-(1-Naphthalenyl)phenyl}thio}-N-(2-chorophenyl)acetamide] | < 50 nM | > 100 nM | > 100 nM | 
CCc1nnc(SCC(=O)Nc2ccccc2[N+](=O)[O-])n1-c1cccc2ccccc12 [Entry 425] |  | > 100 nM | < 50 nM | > 100 nM
Cc1ccccc1NC(=O)CSc1nnnn1-c1cccc2ccccc12 [Entry 202] | > 100 nM | > 100 nM |  | 
CC(C)c1ccc(-n2nnnc2SCC(=O)Nc2ccccc2[N+](=O)[O-])cc1 [Entry 142] |  | > 100 nM | < 50 nM | > 100 nM
O=C(CSc1nnnn1-c1ccc(Cl)cc1Cl)Nc1ccccc1[N+](=O)[O-] [Entry 126] | > 100 nM | > 100 nM |  | 
O=C(CSc1nnnn1-c1ccc(Cl)c(C(F)(F)F)c1)Nc1ccccc1[N+](=O)[O-] [Entry 137] | > 100 nM | > 100 nM |  | 
CC(C)c1ccccc1-n1nnnc1SCC(=O)Nc1ccccc1[N+](=O)[O-] [Entry 112] | > 100 nM | > 100 nM |  | 
O=C(COc1ccccc1-c1ccccc1)Nc1ccccc1[N+](=O)[O-] [Entry 413] | > 100 nM | > 100 nM |  | 
Cc1ccc(-n2nnnc2SCC(=O)Nc2ccccc2Cl)c(Br)c1 [Entry 701] | < 50 nM | > 100 nM |  | 
O=C(CSc1nnnn1-c1cccc2ccccc12)Nc1ccccc1Cl [Entry 208, N-(2-Chlorophenyl)-2-{{1-(1-naphthalenyl)-1H-tetrazol-5-yl}thio}acetamide] |  |  | < 50 nM | > 100 nM
COC(=O)c1ccc(NC(=O)CSc2nnnn2-c2ccc(C)cc2Cl)c([N+](=O)[O-])c1 [Entry 506] | < 50 nM | > 100 nM |  | 
Cc1ccc(-c2ccccc2SCC(=O)Nc2ccc(C(=O)O)cc2Cl)c(Cl)c1 [Entry 419] | < 50 nM | > 100 nM | 50 to 100 nM | 
O=C(CSc1nnnn1-c1cccc2ccccc12)Nc1ccccc1O [Entry 211] | > 100 nM |  | < 50 nM | > 100 nM
CC(C)(C)c1ccc(-n2nnnc2SCC(=O)Nc2ccc(S(C)(=O)=O)cc2Cl)c(Cl)c1 [Entry 603] |  |  | < 50 nM | < 50 nM
Cc1ccc(NC(=O)CSc2nnnn2-c2ccc(C)cc2Cl)c(Cl)c1 [Entry 502] | < 50 nM | > 100 nM | < 50 nM | 
Cc1ccc(-n2nnnc2SCC(=O)Nc2cccnc2Cl)c(Cl)c1 [Entry 803] |  | > 100 nM | < 50 nM | > 100 nM
Cc1ccc(-n2c(C)nnc2SCC(=O)Nc2ccc(-c3ccccc3)cc2Cl)c(Cl)c1 [Entry 428] |  | > 100 nM | < 50 nM | > 100 nM
O=C(CSc1nc2ccccc2n1-c1cccc2ccccc12)Nc1ccccc1[N+](=O)[O-] [Entry 411] | > 100 nM | > 100 nM |  | 
O=C(CSc1nnnn1-c1ccccc1)Nc1ccccc1[N+](=O)[O-] [Entry 108] | > 100 nM | > 100 nM |  | 
O=C(CSc1nnnn1-c1cccc2ccccc12)Nc1ccccc1 [Entry 201] | > 100 nM | > 100 nM |  | 
COC(=O)c1ccc(NC(=O)CSc2ccccc2-c2ccc(C)cc2Cl)c(Cl)c1 [Entry 418] | < 50 nM | > 100 nM | 50 to 100 nM | 
Cc1ccc(-n2nnnc2SCC(=O)Nc2ccccc2Cl)c(Cl)c1 [Entry 501] |  |  | < 50 nM | > 100 nM
COc1ccc(NC(=O)CSc2nnnn2-c2cccc3ccccc23)c(Cl)c1 [Entry 237] | < 50 nM | > 100 nM | < 50 nM | 
